Data taken from article PMC8373983, “Effect of salinity on the zinc(II) binding efficiency of siderophore functional groups and implications for salinity tolerance mechanisms in barley” (Scientific Reports, 2021).
Read-outs that look alike come from different tables or passages of the source.

Tests used:
[1] = parameters: method as in earlier work; conditions: cited from earlier work
[2] = cited from earlier work
[3] = Zinc(II) hydrolysis constants, potentiometric titration in NaCl; assay type: physicochemical; conditions: T = 298.1 K
Method: A 30 ml solution containing each ligand ([L] = 5 – 10 mM), NaCl and HCl was titrated with standard NaOH solutions. For the zinc(II)/ligand systems, the titrant solutions consisted of different amounts of ligand ([L] = 5 − 10 mM), zinc(II) ([Zn] = 0.5—5 mM) and a suitable amount of HCl and NaCl. All the measurements were carried out with an excess of the ligand, with respect to zinc(II) and at different zinc(II):ligand molar ratios. The selection of ratios investigated was determined by simulating titrations using Hyperquad Simulation and Speciation computer software (HySS)[41]. [Zn] and [L] were negligible compared to the background electrolyte concentrations. […] To account for the influence of zinc(II) hydrolysis in the zinc(II)/ligand systems, zinc(II) titrations were carried out separately at each ionic strength to determine the hydroxide constants so that these constants could be included in the equilibrium model used to refine the titration data. In these titrations, the zinc(II) concentration in the analyte solution was 0.7 mM.
The software program Hyperquad was used to determine the equilibrium model and to calculate pKa and stability constants from the potentiometric data set[43]. For each set of pKa constants or zinc(II):ligand ratio studied, at least two repeat titrations were performed. The titration curves for each system were treated as a single set when refining the stability constants. This meant that the refinement procedure was run on both curves at the same time to derive a single set of constants. The error reported on the stability constants is the standard deviation given in the Hyperquad output file. Examples of Hyperquad files for the zinc(II)/PYR system are provided on the Zenodo repository (https://doi.org/10.5281/zenodo.4641710).

[4] = parameter of ionic strength dependence

CC(=O)N(O)CCCCCNC(=O)CCC(=O)N(O)CCCCCNC(=O)CCC(=O)N(O)CCCCCN [DFOB, desferrioxamine B]
log β, 2H+ + L3− = H2L− ([1]; 0.05 M NaCl, T = 298.1 K): 20.94 ± 0.09
log β, 3H+ + L3− = H3L ([1]; 0.05 M NaCl, T = 298.1 K): 30.05 ± 0.12
log β, 4H+ + L3− = H4L+ ([1]; 0.05 M NaCl, T = 298.1 K): 38.83 ± 0.14
log β, H+ + L3− = HL2− ([1]; 0.05 M NaCl, T = 298.1 K): 11.07 ± 0.07
log β, 2H+ + L3− = H2L− ([1]; 0.15 M NaCl, T = 298.1 K): 20.25 ± 0.06
log β, 3H+ + L3− = H3L ([1]; 0.15 M NaCl, T = 298.1 K): 29.10 ± 0.09
log β, 4H+ + L3− = H4L+ ([1]; 0.15 M NaCl, T = 298.1 K): 37.46 ± 0.13
log β, H+ + L3− = HL2− ([1]; 0.15 M NaCl, T = 298.1 K): 10.74 ± 0.04
log β, 2H+ + L3− = H2L− ([1]; 0.30 M NaCl, T = 298.1 K): 19.84 ± 0.04
log β, 3H+ + L3− = H3L ([1]; 0.30 M NaCl, T = 298.1 K): 28.61 ± 0.07
log β, 4H+ + L3− = H4L+ ([1]; 0.30 M NaCl, T = 298.1 K): 37.00 ± 0.10
log β, H+ + L3− = HL2− ([1]; 0.30 M NaCl, T = 298.1 K): 10.36 ± .02
log β, 2H+ + L3− = H2L− ([1]; 0.70 M NaCl, T = 298.1 K): 19.77 ± 0.04
log β, 3H+ + L3− = H3L ([1]; 0.70 M NaCl, T = 298.1 K): 28.60 ± 0.08
log β, 4H+ + L3− = H4L+ ([1]; 0.70 M NaCl, T = 298.1 K): 36.97 ± 0.16
log β, H+ + L3− = HL2− ([1]; 0.70 M NaCl, T = 298.1 K): 10.35 ± 0.02
log β, 2H+ + L3− = H2L− ([1]; 1.00 M NaCl, T = 298.1 K): 19.77 ± 0.08
log β, 3H+ + L3− = H3L ([1]; 1.00 M NaCl, T = 298.1 K): 28.57 ± 0.12
log β, 4H+ + L3− = H4L+ ([1]; 1.00 M NaCl, T = 298.1 K): 36.92 ± 0.14
log β, H+ + L3− = HL2− ([1]; 1.00 M NaCl, T = 298.1 K): 10.14 ± 0.06
logβ^0, 2H+ + L3− = H2L− ([1]; intrinsic, T = 298.1 K): 21.530 ± 0.006
logβ^0, 3H+ + L3− = H3L ([1]; intrinsic, T = 298.1 K): 30.691 ± 0.012
logβ^0, 4H+ + L3− = H4L+ ([1]; intrinsic, T = 298.1 K): 39.250 ± 0.023
logβ^0, H+ + L3− = HL2− ([1]; intrinsic, T = 298.1 K): 11.491 ± 0.003
C, 3H+ + L3− = H3L [1, 4]: 0.194 ± 0.012
log β, Zn2+ + 2H+ + L3- = ZnH2L+ ([2]; 0.05 M NaCl, T = 298.1 K): 29.30±0.13
log β, Zn2+ + H+ + L3- = ZnHL ([2]; 0.05 M NaCl, T = 298.1 K): 21.55±0.11
log β, Zn2+ + L3- = ZnL- ([2]; 0.05 M NaCl, T = 298.1 K): 11.67±0.06
log β, Zn2+ + 2H+ + L3- = ZnH2L+ ([2]; 0.15 M NaCl, T = 298.1 K): 27.81±0.05
log β, Zn2+ + H+ + L3- = ZnHL ([2]; 0.15 M NaCl, T = 298.1 K): 19.85±0.04
log β, Zn2+ + L3- = ZnL- ([2]; 0.15 M NaCl, T = 298.1 K): 9.91±0.02
log β, Zn2+ + 2H+ + L3- = ZnH2L+ ([2]; 0.30 M NaCl, T = 298.1 K): 27.42±0.08
log β, Zn2+ + H+ + L3- = ZnHL ([2]; 0.30 M NaCl, T = 298.1 K): 19.85±0.06
log β, Zn2+ + L3- = ZnL- ([2]; 0.30 M NaCl, T = 298.1 K): 9.97±0.04
log β, Zn2+ + 2H+ + L3- = ZnH2L+ ([2]; 0.70 M NaCl, T = 298.1 K): 27.19±0.12
log β, Zn2+ + H+ + L3- = ZnHL ([2]; 0.70 M NaCl, T = 298.1 K): 19.34±0.09
log β, Zn2+ + L3- = ZnL- ([2]; 0.70 M NaCl, T = 298.1 K): 9.39±0.05
log β, Zn2+ + 2H+ + L3- = ZnH2L+ ([2]; 1.00 M NaCl, T = 298.1 K): 27.25±0.08
log β, Zn2+ + H+ + L3- = ZnHL ([2]; 1.00 M NaCl, T = 298.1 K): 19.38±0.06
log β, Zn2+ + L3- = ZnL- ([2]; 1.00 M NaCl, T = 298.1 K): 9.32±0.04
decrease of the 1:1 zinc(II) stability constant ([2]; between 0.05 and 1.00 M NaCl): 21%
logβ0, Zn2+ + 2H+ + L3- = ZnH2L+ ([2]; intrinsic, T = 298.1 K): 29.872±0.027
logβ0, Zn2+ + H+ + L3- = ZnHL ([2]; intrinsic, T = 298.1 K): 22.105±0.026
logβ0, Zn2+ + L3- = ZnL- ([2]; intrinsic, T = 298.1 K): 12.027±0.039
C, Zn2+ + 2H+ + L3- = ZnH2L+ [2, 4]: 0.009±0.051
C, Zn2+ + H+ + L3- = ZnHL [2, 4]: -0.075±0.053
C, Zn2+ + L3- = ZnL- [2, 4]: -0.486±0.077

[Cl-].[Cl-].[Zn+2] [Zinc(II), ZnCl2]
log β, Zn2+ + 2OH- = [Zn(OH)2] ([3]; 0.05 M NaCl): 15.40±0.06
log β, Zn2+ + 3OH- = [Zn(OH)3]- ([3]; 0.05 M NaCl): 25.16±0.09
log β, Zn2+ + 2OH- = [Zn(OH)2] ([3]; 0.15 M NaCl): 15.76±0.01
log β, Zn2+ + 3OH- = [Zn(OH)3]- ([3]; 0.15 M NaCl): 26.15±0.04
log β, Zn2+ + 2OH- = [Zn(OH)2] ([3]; 0.30 M NaCl): 15.77±0.01
log β, Zn2+ + 3OH- = [Zn(OH)3]- ([3]; 0.30 M NaCl): 26.10±0.03
log β, Zn2+ + 2OH- = [Zn(OH)2] ([3]; 0.70 M NaCl): 15.93±0.01
log β, Zn2+ + 3OH- = [Zn(OH)3]- ([3]; 0.70 M NaCl): 26.51±0.04
log β, Zn2+ + 2OH- = [Zn(OH)2] ([3]; 1.00 M NaCl): 16.05±0.01
log β, Zn2+ + 3OH- = [Zn(OH)3]- ([3]; 1.00 M NaCl): 26.56±0.03
